IC50 data for 90 compounds are collected here from ChEMBL document CHEMBL3727373, “Phosphoglycerate kinase inhibitors” (2012).

This assay deals with T1, Phosphoglycerate kinase 1 (Homo sapiens, UniProt P00558).
T1 sequence (P00558 whole entry): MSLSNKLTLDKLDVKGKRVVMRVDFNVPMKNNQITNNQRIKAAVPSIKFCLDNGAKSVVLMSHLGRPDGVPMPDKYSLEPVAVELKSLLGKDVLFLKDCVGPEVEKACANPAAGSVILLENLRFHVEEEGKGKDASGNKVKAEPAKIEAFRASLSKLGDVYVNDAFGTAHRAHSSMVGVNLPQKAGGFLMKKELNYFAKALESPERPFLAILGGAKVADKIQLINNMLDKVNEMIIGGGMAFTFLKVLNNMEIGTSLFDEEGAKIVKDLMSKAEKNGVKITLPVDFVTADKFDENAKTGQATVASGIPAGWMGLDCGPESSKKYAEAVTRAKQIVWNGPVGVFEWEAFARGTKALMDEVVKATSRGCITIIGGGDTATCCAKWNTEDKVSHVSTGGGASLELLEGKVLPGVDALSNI
The experiment in a line: Inhibition of PGK1 (unknown origin) pre-incubated with enzyme before 3-phosphoglycerate substrate addition and incubated for 30 mins in presence of NADH and ATP by glyceraldehyde P-dehydrogenase coupling based NADH fluorescence assay.
With `CCNc1nc2cc(Cl)c(C#CCC(C)O)cc2nc1NCC` (stereo not given), the IC50 was 122 nM.

With `CCNc1nc2cc(Cl)c(C#CCCCC#N)cc2nc1NCC`, the IC50 was determined as 570 nM.

On to `CCNc1nc2cc(OC)c(Cl)cc2nc1-c1cnn(Cc2ccccc2)c1`, for which the IC50 was found to be 91 nM.

As to `CCNc1nc2cc(Cl)c(C#CC(C)(C)O)cc2nc1NCC`, the IC50 amounted to 2690 nM.

Regarding `CCNc1nc2cc(Cl)c(C#CCCN)cc2nc1NCC`, the IC50 turned out to be 1050 nM.

Regarding `COc1cc2nc(NCc3cccnc3)c(-c3ccncc3)nc2cc1OC`, the IC50 amounted to 7590 nM.

For the compound `CCNc1nc2cc(OC)c(Cl)cc2nc1-c1ccc(C(C)=O)s1`, the IC50 is 1100 nM.

For the compound `CCNc1nc2cc(Cl)c(C#CC(C)(O)CC)cc2nc1NCC` (stereo not given), the half-maximal inhibitory concentration (IC50) was found to be 4810 nM.

As to `CCNc1nc2cc(OC)c(Cl)cc2nc1-c1csc2ccccc12`, the IC50 is 2000 nM.

`CCNc1nc2cc(OC)c(OC)cc2nc1NCCc1ccncc1`: the 50% inhibitory concentration (IC50) is 741 nM.

`CCNc1nc2cc(OC)c(Cl)cc2nc1NCCCN1CCCC1`: the IC50 amounted to 252 nM.

Turning to `CCNc1nc2cc(OC)c(Cl)cc2nc1NCc1cccnc1`, the IC50 worked out at 129 nM.

On to `CCNc1nc2cc(OC)c(Cl)cc2nc1-c1cccc(Cl)c1`, for which the IC50 was determined as 2100 nM.

On to `CCNc1nc2cc(Cl)c(C#CCO)cc2nc1NCC`, for which the IC50 is 1 nM.

In the case of `CCNc1nc2cc(Cl)c(C#CCCO)cc2nc1NCC`, the IC50 was 5 nM.

For the compound `CCNc1nc2cc(OC)c(Cl)cc2nc1NCCCN1CCN(C)CC1`, the IC50 is 195 nM.

Take `CCCCC#Cc1cc2nc(NCC)c(NCC)nc2cc1Cl`: the IC50 was determined as 884 nM.

As to `CCNc1nc2cc(O)c(Cl)cc2nc1NCC`, the IC50 is 366 nM.

Consider `CCNc1nc2cc(Cl)c(NC(=O)CCO)cc2nc1NCC`, for which the IC50 came to 1090 nM.

Regarding `CCNc1nc2cc(OC)c(Cl)cc2nc1-c1cnn(C)c1`, the IC50 is 66 nM.

For the compound `CCNc1nc2cc(OC)c(OC)cc2nc1NCc1ccncc1`, the IC50 was determined as 2010 nM.

As to `CCNc1nc2cc(Cl)c(C#CCCC#N)cc2nc1NCC`, the IC50 stood at 54 nM.

Consider `CCNc1nc2cc(OC)c(OC)cc2nc1Br`, for which the IC50 turned out to be 4640 nM.

For `CCNc1nc2cc(OC)c(Cl)cc2nc1NC(C)CCCN(CC)CC` (stereo not given), the IC50 was determined as 515 nM.

As for `CCNc1nc2cc(OC)c(OC)cc2nc1Cl`, the IC50 came to 6320 nM.

Take `CCNc1nc2cc(Cl)c(OC(F)(F)F)cc2nc1NCC`: the IC50 was 1170 nM.

With `CCNc1nc2cc(Cl)c(C#CCOCCO)cc2nc1NCC`, the IC50 turned out to be 103 nM.

With `CCNc1nc2cc(OC)c(Cl)cc2nc1-c1cncc2ccccc12`, the IC50 stood at 1500 nM.

For `CCC#Cc1cc2nc(NCC)c(NCC)nc2cc1Cl`, the IC50 came to 270 nM.

On to `CCNc1nc2cc(Cl)c(CC(=O)CCC(=O)O)cc2nc1NCC`, for which the half-maximal inhibitory concentration (IC50) is 5830 nM.

In the case of `CCNc1nc2cc(OC)c(Cl)cc2nc1-c1cc2ccccc2s1`, the IC50 is 78 nM.

`CCNc1nc2cc(Cl)c(C#CCOC)cc2nc1NCC`: the IC50 worked out at 66 nM.

Consider `CCNc1nc2cc(OC)c(Cl)cc2nc1-c1cccc(C(N)=O)c1`, for which the IC50 amounted to 240 nM.

`CN1CCN(CCNc2nc3cc(Cl)c(C#CCCO)cc3nc2NCCN2CCN(C)CC2)CC1`: the IC50 came out at 36 nM.

On to `CCNc1nc2cc(Cl)c(C#Cc3ccoc3)cc2nc1NCC`, for which the IC50 stood at 1030 nM.

On to `C#Cc1cc2nc(NCC)c(NCC)nc2cc1Cl`, for which the IC50 was 12 nM.

In the case of `CCNc1nc2cc(OC)c(OC)cc2nc1NCCCN1CCCC1`, the concentration for half-maximal inhibition (IC50) worked out at 4360 nM.

For `CCNc1nc2cc(OC)c(Cl)cc2nc1-c1cccc(C(=O)NCc2ccco2)c1`, the IC50 was found to be 210 nM.

`CCNc1nc2cc(C#CCCO)c(Cl)cc2nc1Cl`: the half-inhibitory concentration (IC50) stood at 41 nM.

As to `CN1CCN(CCNc2nc3cc(Cl)c(C#N)cc3nc2-c2ccccn2)CC1`, the IC50 was found to be 346 nM.

With `CCNc1nc2cc(OC)c(OC)cc2nc1NCC`, the IC50 was found to be 50000 nM.

For `CCNc1nc2cc(Cl)c(C#CC(C)O)cc2nc1NCC` (stereo not given), the IC50 turned out to be 125 nM.

Turning to `CNc1nc2cc(OC)c(OC)cc2nc1Cl`, the IC50 amounted to 24000 nM.

As for `CCNc1nc2cc(OC)c(Cl)cc2nc1-c1cccc2[nH]ccc12`, the IC50 amounted to 4400 nM.

Consider `CCNc1nc2cc(Cl)c(OC)cc2nc1NCC`, for which the IC50 came to 9 nM.

For `CCNc1nc2cc(OC)c(OC)cc2nc1NCCCN1CCCC1=O`, the IC50 turned out to be 1810 nM.

In the case of `CCNc1nc2cc(OC)c(Cl)cc2nc1-c1ccc(Cl)cc1`, the IC50 turned out to be 1900 nM.

On to `CCNc1nc2cc(OC)c(Cl)cc2nc1-c1cnc2ccccc2c1`, for which the 50% inhibitory concentration (IC50) turned out to be 4600 nM.

Consider `C#CCOc1cc2nc(NCC)c(NCC)nc2cc1Cl`, for which the IC50 is 320 nM.

As for `CCNc1nc2cc(Cl)c(C#N)cc2nc1NCc1cccnc1`, the IC50 is 15 nM.

For `CCNc1nc2cc(Cl)c([N+](=O)[O-])cc2nc1NCC`, the IC50 turned out to be 98 nM.

For the compound `CCNc1nc2cc(OC)c(OC)cc2nc1-c1ccncc1`, the IC50 stood at 6660 nM.

Consider `CCNc1nc2cc(OC)c(OC)cc2nc1NCc1cccnc1`, for which the IC50 is 710 nM.

Turning to `CCNc1nc2cc(OC)c(Cl)cc2nc1-c1cccc2ccccc12`, the IC50 was found to be 10000 nM.

Take `CCNc1nc2cc(Cl)c(NC(C)=O)cc2nc1NCC`: the IC50 came to 4140 nM.

On to `CCNc1nc2cc(OC)c(Cl)cc2nc1-c1cn[nH]c1`, for which the IC50 worked out at 75 nM.

`CCNc1nc2cc(Cl)c(C#N)cc2nc1NCC`: the IC50 worked out at 38 nM.

On to `CCNc1nc2cc(C#CCCO)c(Cl)cc2nc1C#CCCO`, for which the IC50 was determined as 665 nM.

For the compound `CCNc1nc2cc(Cl)c(C#N)cc2nc1NCCN1CCN(C)CC1`, the IC50 stood at 71 nM.

`CCNc1nc2cc(OC)c(OC)cc2nc1NCCc1ccccn1`: the IC50 turned out to be 840 nM.

Take `CCNc1nc2cc(OC)c(OC)cc2nc1NC`: the IC50 worked out at 2530 nM.

For the compound `CCNc1nc2cc(Cl)c(C#CC(=O)OC)cc2nc1NCC`, the IC50 was determined as 633 nM.

In the case of `CCNc1nc2cc(Cl)c(C#CC3CC3)cc2nc1NCC`, the concentration for half-maximal inhibition (IC50) was 19 nM.

Turning to `CCNc1nc2cc(Cl)c(C#CCCCO)cc2nc1NCC`, the IC50 was 42 nM.

Regarding `CCNc1nc2cc(Cl)c(C#CC(N)=O)cc2nc1NCC`, the IC50 came out at 556 nM.

Regarding `CCNc1nc2cc(OC)c(Cl)cc2nc1-c1cccs1`, the IC50 amounted to 190 nM.

Turning to `CCNc1nc2cc(Cl)c(C#Cc3cccc(O)c3)cc2nc1NCC`, the IC50 came to 5700 nM.

`COc1cc2nc(Br)c(NCCN3CCN(C)CC3)nc2cc1OC`: the IC50 turned out to be 16400 nM.

As to `CCNc1nc2cc(C#CCCO)c(Cl)cc2nc1NCCN1CCN(C)CC1`, the IC50 was found to be 8 nM.

Turning to `CCNc1nc2cc(OC)c(Cl)cc2nc1-c1ccccc1-c1ccccc1`, the IC50 was found to be 2000 nM.

On to `CCNc1nc2cc(OC)c(Cl)cc2nc1-c1cccc(C(=O)NCc2ccccc2)c1`, for which the IC50 stood at 550 nM.

Consider `CCNc1nc2cc(OC)c(Cl)cc2nc1-c1cc2ccccc2o1`, for which the IC50 stood at 1400 nM.

For the compound `CCNc1nc2cc(Cl)c(C#CCCCCO)cc2nc1NCC`, the IC50 is 385 nM.

Regarding `CCNc1nc2cc(OC)c(Cl)cc2nc1NCCN1CCN(C)CC1`, the IC50 was determined as 173 nM.

Turning to `CCNc1nc2cc(OC)c(Cl)cc2nc1-c1ccc(N2CCN(C(=O)OC(C)(C)C)CC2)nc1`, the IC50 is 1700 nM.

Regarding `CCNc1nc2cc(Cl)c(N3CC(CCO)C3)cc2nc1NCC`, the IC50 amounted to 10000 nM.

As for `CCCC(O)C#Cc1cc2nc(NCC)c(NCC)nc2cc1Cl` (stereo not given), the IC50 came to 2000 nM.

Turning to `COc1cc2nc(NCCCN3CCCC3)c(-c3ccncc3)nc2cc1OC`, the IC50 was 10000 nM.

In the case of `CCNc1nc2cc(Cl)c(C#CCNC(N)=O)cc2nc1NCC`, the IC50 was determined as 393 nM.

`CCNc1nc2cc(OC)c(Cl)cc2nc1Cl`: the IC50 is 1180 nM.

Consider `CCNc1nc2cc(Cl)c(C#CCCN3C(=O)c4ccccc4C3=O)cc2nc1NCC`, for which the IC50 came to 3160 nM.

Turning to `CCNc1nc2cc(C#CCCO)c(Cl)cc2nc1NCCCN1CCN(C)CC1`, the IC50 is 16 nM.

On to `CCNc1nc2cc(OC)c(Cl)cc2nc1-c1cccc2ncccc12`, for which the IC50 worked out at 1400 nM.

For the compound `CCNc1nc2cc(OC)c(Cl)cc2nc1-c1ccc2c(c1)OCO2`, the IC50 stood at 2300 nM.

Take `CCNc1nc2cc(Cl)c(-c3noc(CCO)n3)cc2nc1NCC`: the IC50 was found to be 596 nM.

On to `CCNc1nc2cc(OC)c(OC)cc2nc1NCc1ccccn1`, for which the IC50 came to 1280 nM.

Turning to `CCNc1nc2cc(Cl)c(C#CCOC(=O)CC)cc2nc1NCC`, the IC50 came to 257 nM.

For the compound `CCNc1nc2cc(OC)c(Cl)cc2nc1-c1ccc2c(ccn2C)c1`, the IC50 is 220 nM.

In the case of `CCNc1nc2cc(OC)c(Cl)cc2nc1-c1ccc2occc(=O)c2c1`, the IC50 is 1600 nM.

For `CCNc1nc2cc(Cl)c(CC(=O)CCC(=O)OC)cc2nc1NCC`, the IC50 turned out to be 9000 nM.
